Entries after “also recorded” stand apart in the source; their conditions may differ. Where two headings read alike, the source gives them in different places.
Key:
hP2Y14R [1] = target: T1, hP2Y14R (Homo sapiens, UniProt Q15391); assay: fluorescent binding saturation study in whole CHO cells expressing hP2Y14R; settings: final concentrations of 53 of 2, 100, 500, and 20,000 nM
T1 sequence (Q15391 1-338): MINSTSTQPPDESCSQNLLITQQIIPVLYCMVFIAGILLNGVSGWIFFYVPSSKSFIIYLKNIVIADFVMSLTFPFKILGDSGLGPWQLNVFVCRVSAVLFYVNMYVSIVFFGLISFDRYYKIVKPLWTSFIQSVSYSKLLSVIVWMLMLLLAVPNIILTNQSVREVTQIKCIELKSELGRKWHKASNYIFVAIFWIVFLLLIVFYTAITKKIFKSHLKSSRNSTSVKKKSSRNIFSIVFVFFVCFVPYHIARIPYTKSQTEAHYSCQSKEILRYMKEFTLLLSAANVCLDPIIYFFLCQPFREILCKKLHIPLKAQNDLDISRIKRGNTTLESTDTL

[2] = tested on: protease-mediated mouse model of allergic asthma; assay: protease-mediated mouse model of allergic asthma, BAL fluid cells; settings: 10 mg/kg i.p., C57BL/6J mice
mouse CCI model = assay: mouse model of chronic neuropathic pain; settings: for reversal of mechano-allodynia (paw withdrawal threshold): day 7 post-sciatic nerve constriction, adult male mice
[3] = pharmacokinetics and tolerability in male Wistar rats
[4] = male, Wistar, rat, in vivo, ip
mP2Y14R = target: T2, mP2Y14R (Mus musculus, UniProt Q9ESG6); assay: whole-cell fluorescent binding assay at mP2Y14R expressed in HEK-293 cells
T2 sequence (Q9ESG6 1-338): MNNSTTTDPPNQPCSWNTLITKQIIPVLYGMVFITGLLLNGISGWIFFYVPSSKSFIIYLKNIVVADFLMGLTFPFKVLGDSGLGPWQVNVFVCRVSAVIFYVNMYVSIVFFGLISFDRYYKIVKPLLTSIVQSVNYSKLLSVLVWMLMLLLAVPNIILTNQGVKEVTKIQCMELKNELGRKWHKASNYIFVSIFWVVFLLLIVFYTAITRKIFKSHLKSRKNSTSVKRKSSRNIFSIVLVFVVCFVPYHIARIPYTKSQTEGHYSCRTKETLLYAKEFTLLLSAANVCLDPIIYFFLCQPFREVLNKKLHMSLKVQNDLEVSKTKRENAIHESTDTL

[5] = tested on: cardiac ischemia-reperfusion (I/R) injury; assay: cardiac ischemia-reperfusion; type: in vivo, mouse; settings: 2 mg/kg/day minipump
hP2Y14R [6] = target: T1, hP2Y14R; assay: whole-cell fluorescent competitive binding assay
σ1 receptor = σ1 receptor (Cavia porcellus, UniProt Q60492); assay: PDSP off-target radioligand binding; settings: read-out: Ki, σ1 receptor; NIMH PDSP
5-HT5A = 5-HT5A (Homo sapiens, UniProt P47898); assay: PDSP off-target radioligand binding
σ2 receptor = target: T3, σ2 receptor (Rattus norvegicus, UniProt Q5U3Y7); assay: PDSP off-target radioligand binding; settings: read-out: Ki, σ2 receptor; NIMH PDSP
T3 sequence (Q5U3Y7 1-176): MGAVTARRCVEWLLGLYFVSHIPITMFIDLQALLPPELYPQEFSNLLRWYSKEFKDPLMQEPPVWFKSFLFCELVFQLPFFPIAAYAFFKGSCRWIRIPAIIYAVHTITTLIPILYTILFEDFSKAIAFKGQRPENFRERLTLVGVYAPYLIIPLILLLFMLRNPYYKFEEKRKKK

HPLC-based Log D7.4 = type: physicochemical; settings: from HPLC retention factors, calibration with five standards
serotonin 5-HT1B = serotonin 5-HT1B (Homo sapiens, UniProt P28222); assay: PDSP off-target radioligand binding; settings: read-out: Ki, serotonin 5-HT1B; NIMH PDSP
[7] = tested on: Nonhuman primate (chimpanzee) P2Y14R; settings: read-out: IC50 (P2Y14R), ref Belley et al.[15]; cited from earlier work
[8] = in mouse; cited from earlier work
[9] = pharmacokinetics of double prodrug 62 p.o. in female CD1 mice; settings: 62 by oral gavage (p.o.)
[10] = pharmacokinetics of mono-ester prodrug 63 s.c. in female CD1 mice; settings: 10 mg/kg s.c.

5-HT5A, sequence (P47898 whole entry, species assumed): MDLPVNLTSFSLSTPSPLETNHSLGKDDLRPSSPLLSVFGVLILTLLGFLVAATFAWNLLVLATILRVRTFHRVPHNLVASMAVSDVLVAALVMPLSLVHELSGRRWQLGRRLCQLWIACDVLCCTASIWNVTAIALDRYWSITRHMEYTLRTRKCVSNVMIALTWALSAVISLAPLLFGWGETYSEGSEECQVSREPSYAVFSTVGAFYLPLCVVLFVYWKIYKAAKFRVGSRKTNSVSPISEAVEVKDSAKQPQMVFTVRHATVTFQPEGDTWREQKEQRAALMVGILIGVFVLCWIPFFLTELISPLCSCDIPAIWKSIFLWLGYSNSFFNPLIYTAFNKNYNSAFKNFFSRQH
σ1 receptor, sequence (Q60492 whole entry): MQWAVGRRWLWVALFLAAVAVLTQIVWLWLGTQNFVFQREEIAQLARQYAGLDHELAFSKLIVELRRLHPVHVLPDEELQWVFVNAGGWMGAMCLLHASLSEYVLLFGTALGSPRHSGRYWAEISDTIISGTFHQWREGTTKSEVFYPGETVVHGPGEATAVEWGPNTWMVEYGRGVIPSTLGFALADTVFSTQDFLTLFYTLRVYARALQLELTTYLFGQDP
serotonin 5-HT1B, sequence (P28222 whole entry): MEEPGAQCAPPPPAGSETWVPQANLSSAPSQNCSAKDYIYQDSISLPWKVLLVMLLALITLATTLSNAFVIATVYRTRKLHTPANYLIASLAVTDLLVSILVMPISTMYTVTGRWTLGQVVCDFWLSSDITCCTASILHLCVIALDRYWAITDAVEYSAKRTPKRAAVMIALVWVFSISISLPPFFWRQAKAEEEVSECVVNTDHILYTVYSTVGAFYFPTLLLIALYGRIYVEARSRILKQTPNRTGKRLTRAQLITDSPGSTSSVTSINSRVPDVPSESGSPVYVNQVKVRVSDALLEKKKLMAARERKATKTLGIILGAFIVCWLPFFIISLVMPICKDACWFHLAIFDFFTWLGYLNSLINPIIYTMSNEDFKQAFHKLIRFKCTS

For `C[Si]1(C)C2=CC(=[N+]3CCC3)C=CC2=C(c2cc(C(=O)NCCCCCCn3cc(CCCCN4CCC(c5ccc(-c6cc(C(=O)O)cc7cc(-c8ccc(C(F)(F)F)cc8)ccc67)cc5)CC4)nn3)ccc2C(=O)[O-])c2ccc(N3CCC3)cc21` [compound 53], the “specific binding in whole CHO cells expressing the hP2Y14R” value (hP2Y14R [1]) was “did not demonstrate potent specific binding”.
For `O=C(O)c1cc(-c2ccc([C@]3(O)[C@@H]4CNC[C@H]3C4)cc2)c2ccc(-c3ccc(C(F)(F)F)cc3)cc2c1` [compound 15, 4-(4-((1R,5S,6r)-6-Hydroxy-3-azabicyclo[3.1.1]heptan-6-yl)-phenyl)-7-(4-(trifluoromethyl)phenyl)-2-naphthoic Acid], the “airway eosinophilia (eosinophils in BAL fluid)” value (from here on “airway eosinophilia”) [2] was “demonstrated significant protection”, the “lymphocytes in the BAL fluid” value [2] was “trend toward lower lymphocytes” and the “reversal of mechano-allodynia (paw withdrawal threshold)” value (from here on “reversal of mechano-allodynia”) (mouse CCI model; 10 μmol/kg, p.o. (oral gavage)) was “nearly complete protection at 1 h; also recorded: reversed the mechano-allodynia”. The “reversal of mechano-allodynia” value (mouse CCI model; i.p. injection) was “full reversal of mechano-allodynia within 0.5 h”, the “duration of the protection” value (mouse CCI model; oral gavage, 10 μmol/kg, 1 and 15 in the same CCI experiment) was “longer than protection by 1” and the “mortality or morbidity / tolerability” value ([3]; male Wistar rats, 1, 3, and 10 mg/kg i.p. and 0.5 mg/kg i.v.) was “well tolerated”. It also gave a half-life ([3]; male, Wistar, rat, plasma, ip, 3 mg/kg) of 4.3 h, a Maximal plasma concentration ([4]; 1 mg/kg) of 0.50 µM and a Maximal plasma concentration ([4]; 3 mg/kg) of 1.3 µM. The Maximal plasma concentration ([4]; 10 mg/kg) was 4.0 µM, the “mP2Y14R affinity higher than reference antagonist 1” value (mP2Y14R) was 4.5 fold and the “protection against heart I/R injury” value [5] was “no protection against heart I/R injury”. The “ligand efficiency (LE)” value (hP2Y14R [6]) was 0.311.
For `CCOC(=O)N1C[C@H]2C[C@@H]1C[C@@H]2c1ccc(-c2cc(C(=O)OCC(=O)N(C)C)cc3cc(-c4ccc(C(F)(F)F)cc4)ccc23)cc1` [compound 64, reference compound], the “reversal of mechano-allodynia” value (mouse CCI model; i.p. injection) was “provided benefit”.
“Mixture of 4-(4-(2,3,6,7-Tetrahydro-1H-azepin-4-yl)phenyl)-7-(4-(trifluoromethyl)phenyl)-2-naphthoic Acid and 4-(4-(2,5,6,7-Tetra-hydro-1H-azepin-4-yl)phenyl)-7-(4-(trifluoromethyl)phenyl)-2-naphthoic Acid [compound 17]” gave a Ki (σ1 receptor) of 840 nM, a Ki (hP2Y14R [6]) of 6.92 nM and an IC50 (hP2Y14R [6]; read-out: IC50 (nM), affinity at hP2Y14R, whole-cell fluorescent binding, tracer 52 (20 nM), hP2Y14R-CHO cells, n = 3–4 unless noted) of 11.9 ± 3.6 nM. For the same compound, the Ki (5-HT5A; read-out: Ki, 5-HT5A, NIMH PDSP) was 4000 nM, the Ki (σ2 receptor) was 3900 nM and the “Log D7.4” value (HPLC-based Log D7.4) was 2.2±0.0. It also gave a Ki (serotonin 5-HT1B) of 4100 nM.
For `O=C(O)c1cc(-c2ccc(C3CCNCC3)cc2)c2ccc(-c3ccc(C(F)(F)F)cc3)cc2c1` [compound 1, 4-(4-(Piperidin-4-yl)phenyl)-7-(4-(trifluoromethyl)phenyl)-2-naphthoic Acid, reference compound], the “airway eosinophilia” value [2] is given as “reduce airway eosinophilia”, the “lymphocytes in the BAL fluid” value [2] is given as “trend toward lower lymphocytes” and the IC50 [7] is given as 2.2 nM. For the same compound, the “reversal of mechano-allodynia” value (mouse CCI model; 10 μmol/kg, p.o. (oral gavage)) was “full reversal of mechano-allodynia; also recorded: reversed the mechano-allodynia” and the oral bioavailability [8] was 5 % F.
In the case of `O=C(Cc1ccc(C(F)(F)F)cc1)Nc1cccc(-c2nc3cc(Cl)ccc3o2)c1` [4a, reference compound], the binding inhibition (hP2Y14R [6]; up to 100 μM, tracer 52, hP2Y14R-expressing CHO cells) is reported as “no binding inhibition”.
With `O=C(O)c1cc(-c2ccc(C3CCCNCC3)cc2)c2ccc(-c3ccc(C(F)(F)F)cc3)cc2c1` (stereo not shown) [compound 16, 4-(4-(Azepan-4-yl)phenyl)-7-(4-(trifluoromethyl)phenyl)-2-naphthoic Acid] the “reversal of mechano-allodynia” value (mouse CCI model; i.p. injection) was “provided benefit” and the Ki (5-HT5A) was 4800 nM.
With `O=C(O)c1cc(-c2ccc(C3(O)C[C@H]4CNC[C@@H]4C3)cc2)c2ccc(-c3ccc(C(F)(F)F)cc3)cc2c1` (racemic) [compound 11, rac-4-(4-((3aR,6aR)-5-Hydroxyoctahydrocyclopenta[c]pyrrol-5-yl)phenyl)-7-(4-(trifluoromethyl)phenyl)-2-naphthoic Acid] the “reversal of mechano-allodynia” value (mouse CCI model; i.p. injection) was “maintained over 3 h” and the Ki (5-HT5A) was 2400 nM.
In the case of `CCOC(=O)N1CCC(c2ccc(-c3cc(C(=O)OCC(=O)N(C)C)cc4cc(-c5ccc(C(F)(F)F)cc5)ccc34)cc2)CC1` [compound 62, Ethyl 4-(4-(3-((2-(Dimethylamino)-2-oxoethoxy)carbonyl)-6-(4-(trifluoromethyl)phenyl)naphthalen-1-yl)phenyl)piperidine-1-carboxylate], the oral bioavailability [9] is reported as 6.9 % F, the peak concentration [9] is reported as ~ 2 μg/mL and the “reversal of mechano-allodynia” value (mouse CCI model; i.p. injection) is reported as “provided benefit”.
For `CN(C)C(=O)COC(=O)c1cc(-c2ccc([C@H]3C[C@H]4C[C@@H]3CN4)cc2)c2ccc(-c3ccc(C(F)(F)F)cc3)cc2c1` [compound 63, reference compound], the “in vivo cleavage of prodrug to active drug 2b” value [10] was “rapid cleavage of the ester group” and the “reversal of mechano-allodynia” value (mouse CCI model; 10 μmol/kg, p.o. (oral gavage)) was “fully efficacious within 1 h”.
For `CCOC(=O)N1C[C@H]2C[C@@H](C1)[C@@]2(O)c1ccc(-c2cc(C(=O)OCC(=O)N(C)C)cc3cc(-c4ccc(C(F)(F)F)cc4)ccc23)cc1` [compound 50, Ethyl (1R,5S,6r)-6-(4-(3-((2-(Dimethylamino)-2-oxoethoxy)-carbonyl)-6-(4-(trifluoromethyl)phenyl)naphthalen-1-yl)phenyl)-6-hydroxy-3-azabicyclo[3.1.1]heptane-3-carboxylate], the “airway eosinophilia” value [2] was “lack of activity” and the “reversal of mechano-allodynia” value (mouse CCI model; 10 μmol/kg, p.o. (oral gavage)) was “reversed the mechano-allodynia”.
For `O=C(O)c1cc(-c2ccc(C3=C[C@H]4CNC[C@@H]4C3)cc2)c2ccc(-c3ccc(C(F)(F)F)cc3)cc2c1` (racemic) [compound 12, rac-4-(4-((3aR,6aR)-1,2,3,3a,4,6a-Hexahydrocyclopenta[c]-pyrrol-5-yl)phenyl)-7-(4-(trifluoromethyl)phenyl)-2-naphthoic Acid], the “more potent at the mP2Y14R (vs human)” value (mP2Y14R) was 3 fold.

Reference: PMC10407959 (Journal of medicinal chemistry, 2023)
